{"source": "patent US12060347B2", "about": "(BRISTOL-MYERS SQUIBB COMPANY, priority 2016, dated 2024)", "target": "T1, human PAR4 (Homo sapiens, UniProt Q96RI0)", "T1 construct": "expressed in transfected cells; host or cells: HEK293 PAR4 Clone 1.2A (BMS Arctic ID 383940)", "T1 sequence (Q96RI0 18-385)": "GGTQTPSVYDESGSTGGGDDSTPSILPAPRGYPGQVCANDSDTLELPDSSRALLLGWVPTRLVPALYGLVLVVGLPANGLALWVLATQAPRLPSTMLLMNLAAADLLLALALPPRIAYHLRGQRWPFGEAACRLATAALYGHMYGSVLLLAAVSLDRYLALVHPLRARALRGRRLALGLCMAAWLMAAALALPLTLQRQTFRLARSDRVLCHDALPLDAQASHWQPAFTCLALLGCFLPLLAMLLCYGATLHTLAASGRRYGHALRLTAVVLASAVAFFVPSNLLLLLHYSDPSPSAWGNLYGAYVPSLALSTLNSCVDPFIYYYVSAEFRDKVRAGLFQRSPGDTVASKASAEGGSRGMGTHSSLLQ", "test": "PAR4 FLIPR assay: antagonism of agonist-peptide-induced calcium mobilization in PAR4-expressing HEK293 cells", "format": "cell-based", "details": "H-Ala-Phe(4-F)-[…]NH2-induced intracellular calcium mobilization, 11-point curves", "data": [{"smiles": "COc1cnc2c(-c3nc4cc(F)c(O[C@@H](C)[C@@H](C)OC(=O)Nc5cnc(C(=O)N6CCOCC6)nc5)cc4s3)cc(C)cc2n1", "note": "[Example 437, (2R,3S)-3-((5-fluoro-2-(2-methoxy-7-methylquinoxalin-5-yl)benzo[d]thiazol-6-yl)oxy)butan-2-yl (2-(morpholine-4-carbonyl)pyrimidin-5-yl)carbamate]", "values": [{"measurement": "IC50", "result": 4.9, "unit": "nM"}]}, {"smiles": "COc1cnc2c(-c3nc4cc(F)c(O[C@@H](C)[C@@H](C)OC(=O)Nc5ccc(C(=O)N(C)C)nc5)cc4s3)cc(C)cc2n1", "note": "[Example 438, (2R,3S)-3-((5-fluoro-2-(2-methoxy-7-methylquinoxalin-5-yl)benzo[d]thiazol-6-yl)oxy)butan-2-yl (6-(dimethylcarbamoyl)pyridin-3-yl)carbamate]", "values": [{"measurement": "IC50", "result": 1.9, "unit": "nM"}]}, {"smiles": "COc1cnc2c(-c3nc4cc(F)c(O[C@@H](C)[C@@H](C)OC(=O)Nc5ccc(C(=O)NC[C@@H](C)O)nc5)cc4s3)cc(C)cc2n1", "note": "[Example 439, (2R,3S)-3-((5-fluoro-2-(2-methoxy-7-methylquinoxalin-5-yl)benzo[d]thiazol-6-yl)oxy)butan-2-yl (6-(((R)-2-hydroxypropyl)carbamoyl)pyridin-3-yl)carbamate]", "values": [{"measurement": "IC50", "result": 0.9, "unit": "nM"}]}, {"smiles": "CNC(=O)c1ncc(NC(=O)O[C@H](C)[C@H](C)Oc2cc3sc(-c4cc(C)cc5nc(OC)cnc45)nc3cc2F)cn1", "note": "[Example 440, (2R,3S)-3-((5-fluoro-2-(2-methoxy-7-methylquinoxalin-5-yl)benzo[d]thiazol-6-yl)oxy)butan-2-yl (2-(methylcarbamoyl)pyrimidin-5-yl)carbamate]", "values": [{"measurement": "IC50", "result": 0.8, "unit": "nM"}]}, {"smiles": "COc1cnc2c(-c3nc4cc(F)c(O[C@@H](C)[C@@H](C)OC(=O)Nc5ccc(C(=O)NC[C@H](C)O)nc5)cc4s3)cc(C)cc2n1", "note": "[Example 441, (2R,3S)-3-((5-fluoro-2-(2-methoxy-7-methylquinoxalin-5-yl)benzo[d]thiazol-6-yl)oxy)butan-2-yl (6-(((S)-2-hydroxypropyl)carbamoyl)pyridin-3-yl)carbamate]", "values": [{"measurement": "IC50", "result": 0.9, "unit": "nM"}]}, {"smiles": "COc1cnc2c(-c3nc4cc(F)c(OC[C@@H](C)OC(=O)Nc5ccnc(C(=O)NCCO)c5)cc4s3)cc(C)cc2n1", "note": "[Example 442, (R)-1-((5-fluoro-2-(2-methoxy-7-methylquinoxalin-5-yl)benzo[d]thiazol-6-yl)oxy)propan-2-yl (2-((2-hydroxyethyl)carbamoyl)pyridin-4-yl)carbamate]", "values": [{"measurement": "IC50", "result": 0.8, "unit": "nM"}]}, {"smiles": "CNC(=O)c1cc(NC(=O)O[C@H](C)COc2cc3sc(-c4cc(C)cc5nc(OC)cnc45)nc3cc2F)ccn1", "note": "[Example 443, (R)-1-((5-fluoro-2-(2-methoxy-7-methylquinoxalin-5-yl)benzo[d]thiazol-6-yl)oxy)propan-2-yl (2-(methylcarbamoyl)pyridin-4-yl)carbamate]", "values": [{"measurement": "IC50", "result": 0.6, "unit": "nM"}]}, {"smiles": "COc1cnc2c(-c3nc4cc(F)c(OC[C@@H](C)OC(=O)Nc5ccnc(C(N)=O)c5)cc4s3)cc(C)cc2n1", "note": "[Example 444, (R)-1-((5-fluoro-2-(2-methoxy-7-methylquinoxalin-5-yl)benzo[d]thiazol-6-yl)oxy)propan-2-yl (2-carbamoylpyridin-4-yl)carbamate]", "values": [{"measurement": "IC50", "result": 0.8, "unit": "nM"}]}, {"smiles": "COc1cnc2c(-c3nc4cc(F)c(OC[C@@H](C)OC(=O)Nc5ccc(C(=O)NCCO)nc5)cc4s3)cc(C)cc2n1", "note": "[Example 445, (R)-1-((5-fluoro-2-(2-methoxy-7-methylquinoxalin-5-yl)benzo[d]thiazol-6-yl)oxy)propan-2-yl (6-((2-hydroxyethyl)carbamoyl)pyridin-3-yl)carbamate]", "values": [{"measurement": "IC50", "result": 3.2, "unit": "nM"}]}, {"smiles": "COc1cnc2c(-c3nc4cc(F)c(O[C@@H](C)[C@@H](C)OC(=O)Nc5ccc(C(=O)NCCC(C)(C)O)nc5)cc4s3)cc(C)cc2n1", "note": "[Example 446, (2R,3S)-3-((5-fluoro-2-(2-methoxy-7-methylquinoxalin-5-yl)benzo[d]thiazol-6-yl)oxy)butan-2-yl (6-((3-hydroxy-3-methylbutyl)carbamoyl)pyridin-3-yl)carbamate]", "values": [{"measurement": "IC50", "result": 2.3, "unit": "nM"}]}, {"smiles": "COc1cnc2c(-c3nc4cc(F)c(OC[C@@H](C)OC(=O)Nc5ccnc(C(=O)N(C)C)c5)cc4s3)cc(C)cc2n1", "note": "[Example 447, (R)-1-((5-fluoro-2-(2-methoxy-7-methylquinoxalin-5-yl)benzo[d]thiazol-6-yl)oxy)propan-2-yl (2-(dimethylcarbamoyl)pyridin-4-yl)carbamate]", "values": [{"measurement": "IC50", "result": 21, "unit": "nM"}]}, {"smiles": "COc1cnc2c(-c3nc4cc(F)c(OC[C@@H](C)OC(=O)Nc5ccc(C(=O)NCC(C)(C)O)nc5)cc4s3)cc(C)cc2n1", "note": "[Example 448, (R)-1-((5-fluoro-2-(2-methoxy-7-methylquinoxalin-5-yl)benzo[d]thiazol-6-yl)oxy)propan-2-yl (6-((2-hydroxy-2-methylpropyl)carbamoyl)pyridin-3-yl)carbamate]", "values": [{"measurement": "IC50", "result": 2.1, "unit": "nM"}]}, {"smiles": "COc1cnc2c(-c3nc4cc(F)c(OC[C@@H](C)OC(=O)Nc5ccc(C(=O)NC[C@@H](C)O)nc5)cc4s3)cc(C)cc2n1", "note": "[Example 449, (R)-1-((5-fluoro-2-(2-methoxy-7-methylquinoxalin-5-yl)benzo[d]thiazol-6-yl)oxy)propan-2-yl (6-(((R)-2-hydroxypropyl)carbamoyl)pyridin-3-yl)carbamate]", "values": [{"measurement": "IC50", "result": 0.3, "unit": "nM"}]}, {"smiles": "COc1cnc2c(-c3nc4cc(F)c(OC[C@@H](C)OC(=O)Nc5ccc(C(=O)NC[C@H](C)O)nc5)cc4s3)cc(C)cc2n1", "note": "[Example 450, (R)-1-((5-fluoro-2-(2-methoxy-7-methylquinoxalin-5-yl)benzo[d]thiazol-6-yl)oxy)propan-2-yl (6-(((S)-2-hydroxypropyl)carbamoyl)pyridin-3-yl)carbamate]", "values": [{"measurement": "IC50", "result": 0.5, "unit": "nM"}]}, {"smiles": "COc1cnc2c(-c3nc4cc(F)c(O[C@@H](C)[C@@H](C)OC(=O)Nc5ccnc(C(=O)NCCO)c5)cc4s3)cc(C)cc2n1", "note": "[Example 451, (2R,3S)-3-((5-fluoro-2-(2-methoxy-7-methylquinoxalin-5-yl)benzo[d]thiazol-6-yl)oxy)butan-2-yl (2-((2-hydroxyethyl)carbamoyl)pyridin-4-yl)carbamate]", "values": [{"measurement": "IC50", "result": 0.7, "unit": "nM"}]}, {"smiles": "COc1cnc2c(-c3nc4cc(F)c(O[C@@H](C)[C@@H](C)OC(=O)Nc5ccnc(C(=O)NC[C@@H](C)O)c5)cc4s3)cc(C)cc2n1", "note": "[Example 452, (2R,3S)-3-((5-fluoro-2-(2-methoxy-7-methylquinoxalin-5-yl)benzo[d]thiazol-6-yl)oxy)butan-2-yl (2-(((R)-2-hydroxypropyl)carbamoyl)pyridin-4-yl)carbamate]", "values": [{"measurement": "IC50", "result": 0.4, "unit": "nM"}]}, {"smiles": "COc1cnc2c(-c3nc4cc(F)c(O[C@@H](C)[C@@H](C)OC(=O)Nc5ccnc(C(N)=O)c5)cc4s3)cc(C)cc2n1", "note": "[Example 453, (2R,3S)-3-((5-fluoro-2-(2-methoxy-7-methylquinoxalin-5-yl)benzo[d]thiazol-6-yl)oxy)butan-2-yl (2-carbamoylpyridin-4-yl)carbamate]", "values": [{"measurement": "IC50", "result": 0.6, "unit": "nM"}]}, {"smiles": "COc1cnc2c(-c3nc4cc(F)c(O[C@@H](C)[C@@H](C)OC(=O)Nc5cnc(C(N)=O)nc5)cc4s3)cc(C)cc2n1", "note": "[Example 454, (2R,3S)-3-((5-fluoro-2-(2-methoxy-7-methylquinoxalin-5-yl)benzo[d]thiazol-6-yl)oxy)butan-2-yl (2-carbamoylpyrimidin-5-yl)carbamate]", "values": [{"measurement": "IC50", "result": 1.3, "unit": "nM"}]}, {"smiles": "COc1cnc2c(-c3nc4cc(F)c(O[C@@H](C)[C@@H](C)OC(=O)Nc5cnc(C(=O)NCCO)nc5)cc4s3)cc(C)cc2n1", "note": "[Example 455, (2R,3S)-3-((5-fluoro-2-(2-methoxy-7-methylquinoxalin-5-yl)benzo[d]thiazol-6-yl)oxy)butan-2-yl (2-((2-hydroxyethyl)carbamoyl)pyrimidin-5-yl)carbamate]", "values": [{"measurement": "IC50", "result": 0.8, "unit": "nM"}]}]}
